Read-outs that look alike come from different tables or passages of the source.
How the values were obtained:
LPAR1 receptor = target: T1, LPAR1 receptor (Homo sapiens, UniProt Q92633); assay: LPAR1 in vitro biological activity evaluation 2: HTRF cAMP kit (LANCE Ultra cAMP Kit) assay in CHO stable transfected cell line expressing the LPAR1 receptor; format: cell-based; settings: Table 2, read-out: LPAR1 inhibitory activity IC50
T1 construct: expressed in transfected cells
Experimental: The inhibitory effects of the compounds of the present disclosure on the LPAR1 receptor were determined using a Chinese hamster ovary (CHO) stable transfected cell line expressing the LPAR1 receptor, through the HTRF cAMP kit (LANCE® Ultra cAMP Kit).
The CHO cell line expressing the LPAR1 receptor was cultured in F-12 medium (Gibco, 117650054) containing 10% fetal bovine serum (FBS, Avantor, 76294-180) and 0.2 mg/mL hygromycin B (Solarbio, H8080-1g) at 37°C with 5% CO2. Cell passage, recovery, and cryopreservation were performed according to conventional methods. The stable transfected cell line was cultured to 80% confluence, digested with trypsin to collect cells, counted, and then seeded at 5 µL/well in a 384-well plate (500 cells/5 µL). The 1× Stimulation Buffer was prepared according to the instructions of the kit (LANCE® Ultra cAMP Kit). 1 µL of the test compound solution (diluted to 10× with 1× Stimulation Buffer) was added to the corresponding experimental wells, followed by centrifugation and incubation at 37°C for 10 minutes. […] 5 µL/well of Eu-cAMP (diluted with Detection buffer) was added to the corresponding experimental wells. 5 µL/well of ULight™-anti-cAMP antibody (diluted with Detection buffer) was added to the corresponding experimental wells, followed by centrifugation and incubation at room temperature for 1 hour. After the incubation was completed, the readings at 665 nm and 620 nm under 330 nm excitation were detected using the HTS high-throughput drug screening multifunctional microplate reader (BMG, PHERAstar FSX). The IC50 values were calculated by fitting nonlinear regression (dose response - variable slope) using GraphPad Prism software.

[1] = target: hLPAR1 (human lysophosphatidic acid receptor 1, Accession No.: NM_001401.4) (Homo sapiens, UniProt Q92633); assay: cell-based; settings: FLIPR method, CHO-K1 cells overexpressing hLPAR1
hLPAR1 (human lysophosphatidic acid receptor 1, Accession No.: NM_001401.4), sequence (Q92633 whole entry): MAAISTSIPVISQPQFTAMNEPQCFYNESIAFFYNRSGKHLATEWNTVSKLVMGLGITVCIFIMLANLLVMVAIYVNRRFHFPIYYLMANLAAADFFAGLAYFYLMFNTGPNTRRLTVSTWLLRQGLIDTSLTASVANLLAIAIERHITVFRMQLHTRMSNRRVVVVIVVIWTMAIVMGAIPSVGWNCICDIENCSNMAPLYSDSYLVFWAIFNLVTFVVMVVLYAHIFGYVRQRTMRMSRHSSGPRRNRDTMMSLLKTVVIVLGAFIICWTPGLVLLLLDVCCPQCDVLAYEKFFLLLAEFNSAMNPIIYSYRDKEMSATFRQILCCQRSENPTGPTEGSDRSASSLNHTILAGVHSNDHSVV
Method in brief: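 Antagonist mode in CHO-K1 cells stably expressing hLPAR1, Fluo-4 loaded; compound preincubated 30 min at room temperature before 1 µM oleoyl-LPA (final) challenge.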

[2] = Pharmacokinetic study in rats (oral gavage and tail vein injection, plasma LC-MS/MS); format: in vivo; settings: rat; for Cmax: read-out: Cmax
Experimental: Male SPF-grade SD rats (Beijing Vital River Laboratory Animal Technology Co., Ltd.) with a body weight range of 200 to 250 g were used. After acclimatization, the rats were administered a clear solution of the compound of the present disclosure via oral gavage (Po, fasted overnight before administration with free access to water, food returned 4 hours after administration) and tail vein injection (Iv, free access to food and water throughout the administration). Blood samples were collected from the orbital venous plexus/jugular vein of rats at specified time points after administration (blood collection time points for the PO group: 0.167, 0.5, 1, 2, 4, 6, 8, and 24 h; for the IV group: 0.033, 0.167, 1, 2, 4, 6, 8, and 24 h). The concentration of compounds in plasma was detected by LC-MS/MS (AB SCIEX Qtrap4500). Data were analyzed using WinNonlin (version 5.2.1 Pharsight, Mountain View, CA) with a non-compartmental model to obtain PK parameters (including Cmax, C0, Tmax, AUClast, AUCinf, T1/2, etc.).
Table 3: Results of in vivo pharmacokinetic studies of compounds of the present disclosure in rats
The vehicle for the Po group compound was 5% DMSO + 5% ethanol + 60% PEG400 + 30% normal saline; the vehicle for the Iv group compound was 10% ethanol + 20% pure water + 70% PEG400 solution.

[3] = Table 1, read-out: LPAR1 inhibitory activity IC50

T1 sequence (Q92633 whole entry): as above

**Q.** Which IC50 (LPAR1 receptor) does the source give for `CCC[C@@H](C)OC(=O)Nc1c(-c2ccc(C#CC3(CC(=O)O)CC(OC)C3)c(C)n2)nnn1C` (single isomer, unassigned) [278-A] here?
**A.** 0.0462 µM

**Q.** With `CCC[C@@H](C)OC(=O)Nc1c(-c2ccc(C#CC3(CC(=O)O)CC(OC)C3)c(C)n2)nnn1C` (single isomer, unassigned) [278-B] as the molecule, how does the IC50 (LPAR1 receptor) read?
**A.** 0.056 µM

**Q.** With `Cc1nc(-c2nnn(C)c2COC(=O)N(C)CCC(C)(F)F)ccc1C#C[C@@H]1CCC[C@H]1C(=O)O` (single isomer, unassigned) [282-A] as the molecule, how does the IC50 (LPAR1 receptor) read?
**A.** 0.0876 µM

**Q.** Which IC50 (LPAR1 receptor) does the source give for `CCCC(C)OC(=O)Nc1c(-c2ccc(C#CC3CCCC3C(=O)O)c(C)n2)nnn1C` (single isomer, unassigned) [305-A] here?
**A.** 0.0256 µM

**Q.** Which IC50 (LPAR1 receptor) does the source give for `Cc1nc(-c2nnn(C)c2NC(=O)O[C@H](C)c2ccccc2Cl)ccc1C#C[C@@H]1C[C@H]1C(=O)O` [compound 053] here?
**A.** 0.117 µM

**Q.** With `CCCN(C)C(=O)OCc1c(-c2ccc(C#CC3(CC(=O)O)CC3)c(C(F)(F)F)n2)nnn1C` [compound 101] as the molecule, how does the IC50 (LPAR1 receptor) read?
**A.** 0.205 µM

**Q.** Which IC50 (LPAR1 receptor) does the source give for `CCCCN(C)C(=O)OCc1c(-c2ccc(C#CC3(CC(=O)O)CC(F)(F)C3)c(C)n2)nnn1C` [compound 109] here?
**A.** 0.0239 µM

**Q.** Which IC50 (LPAR1 receptor) does the source give for `CCCCN(C)C(=O)OCc1c(-c2ccc(C#CC3(CC(=O)O)CC(OC)C3)c(C)n2)nnn1C` (stereo not shown) [compound 113] here?
**A.** 0.0196 µM

**Q.** For `CCCCN(C)C(=O)OCc1c(-c2ccc(C#CC3(CC(=O)O)CC(OCC)C3)c(C)n2)nnn1C` (stereo not shown) [compound 114], which IC50 (LPAR1 receptor) is on record?
**A.** 0.0092 µM

**Q.** For `CCCN(C)C(=O)OCc1c(-c2ccc(C#CC3(CC(=O)O)CC4(CC4)C3)c(C)n2)nnn1C` [compound 115], which IC50 (LPAR1 receptor) is on record?
**A.** 0.0083 µM

**Q.** With `CCOc1ccnc(NCc2c(-c3ccc(C#CC4(CC(=O)O)CC4)c(C)n3)nnn2C)n1` [compound 118] as the molecule, how does the IC50 (LPAR1 receptor) read?
**A.** 0.0839 µM

**Q.** Which IC50 (LPAR1 receptor) does the source give for `CCC(F)(F)[C@@H](C)OC(=O)Nc1c(-c2ccc(C#CC3(CC(=O)O)CC3)c(C(F)(F)F)n2)nnn1C` [compound 208, (R)-2-(1-((6-(5-((((3,3-difluoropentan-2-yl)oxy)carbonyl)amino)-1-methyl-1H-1,2,3-triazol-4-yl)-2-(trifluoromethyl)pyridin-3-yl)ethynyl)cyclopropyl)acetic acid] here?
**A.** 0.0441 µM

**Q.** With `C[C@H](CC(C)(F)F)OC(=O)Nc1c(-c2ccc(C#CC3(CC(=O)O)CC3)c(Cl)n2)nnn1C` [compound 210, (R)-2-(1-((2-chloro-6-(5-((((4,4-difluoropentan-2-yl)oxy)carbonyl)amino)-1-methyl-1H-1,2,3-triazol-4-yl)pyridin-3-yl)ethynyl)cyclopropyl)acetic acid] as the molecule, how does the IC50 [1, 3] read?
**A.** 0.0249 µM

**Q.** What about the half-life ([2]; male, SD, iv, 1 mg/kg) of the same molecule?
**A.** 6.18 h

**Q.** What about the half-life ([2]; male, SD, po, 1 mg/kg) of the same molecule?
**A.** 6.08 h

**Q.** And the AUC(0-t) ([2]; male, SD rats, Iv, 1 mg/kg)?
**A.** 5000 to 10000 ng·h/mL

**Q.** What about the Cmax ([2]; male, SD rats, Iv, 1 mg/kg) of the same molecule?
**A.** 800 to 5000 ng/mL

**Q.** What about the AUC(0-t) ([2]; male, SD rats, Po, 1 mg/kg) of the same molecule?
**A.** 3000 to 5000 ng·h/mL

**Q.** And the Cmax ([2]; male, SD rats, Po, 1 mg/kg)?
**A.** 200 to 800 ng/mL

**Q.** Which IC50 [1, 3] does the source give for `Cc1nc(-c2nnn(C)c2CNc2nccc(C3CCC3)n2)ccc1C#CC1(CC(=O)O)CC1` [compound 214, 2-(1-((6-(5-(((4-cyclobutylpyrimidin-2-yl)amino)methyl)-1-methyl-1H-1,2,3-triazol-4-yl)-2-methylpyridin-3-yl)ethynyl)cyclopropyl)acetic acid] here?
**A.** 0.0094 µM

**Q.** What about the half-life ([2]; male, SD, iv, 1 mg/kg) of the same molecule?
**A.** 7.01 h

**Q.** What about the half-life ([2]; male, SD, po, 3 mg/kg) of the same molecule?
**A.** 8.21 h

**Q.** What about the AUC(0-t) ([2]; male, SD rats, Iv, 1 mg/kg) of the same molecule?
**A.** 3000 to 5000 ng·h/mL

**Q.** And the Cmax ([2]; male, SD rats, Iv, 1 mg/kg)?
**A.** 800 to 5000 ng/mL

**Q.** And the AUC(0-t) ([2]; male, SD rats, Po, 3 mg/kg)?
**A.** 10000 to 20000 ng·h/mL

**Q.** And the Cmax ([2]; male, SD rats, Po, 3 mg/kg)?
**A.** 800 to 5000 ng/mL

**Q.** Which results are given for `Cc1nc(-c2nnn(C)c2CNC(=O)OCc2ccccc2)ccc1C#CC1(CC(=O)O)CC1` [compound 215]?
**A.** IC50 ([1]; LPAR1 inhibitory activity IC50, Table 1): 0.043 µM; AUC(0-t) ([2]; SD rats, Iv, 1 mg/kg): 1200 to 3000 ng·h/mL; half-life ([2]; SD rats, Iv, 1 mg/kg): 5.03 h; Cmax ([2]; SD rats, Iv, 1 mg/kg): 800 to 5000 ng/mL; AUC(0-t) ([2]; SD rats, Po, 3 mg/kg): 5000 to 10000 ng·h/mL; half-life ([2]; SD rats, Po, 3 mg/kg): 4.49 h; Cmax ([2]; SD rats, Po, 3 mg/kg): 800 to 5000 ng/mL

**Q.** What does the source list for `Cc1nc(-c2nnn(C)c2COc2nccc(C3CC(F)(F)C3)n2)ccc1C#CC1(CC(=O)O)CC1` [compound 216, 2-(1-((6-(5-(((4-(3,3-difluorocyclobutyl)pyrimidin-2-yl)oxy)methyl)-1-methyl-1H-1,2,3-triazol-4-yl)-2-methylpyridin-3-yl)ethynyl)cyclopropyl)acetic acid]?
**A.** IC50 [1, 3]: 0.0233 µM; half-life ([2]; male, SD, iv, 1 mg/kg): 4.9 h; half-life ([2]; male, SD, po, 3 mg/kg): 4.44 h; AUC(0-t) ([2]; male, SD rats, Iv, 1 mg/kg): 1200 to 3000 ng·h/mL; Cmax ([2]; male, SD rats, Iv, 1 mg/kg): 5000 to 8000 ng/mL; AUC(0-t) ([2]; male, SD rats, Po, 3 mg/kg): 5000 to 10000 ng·h/mL; Cmax ([2]; male, SD rats, Po, 3 mg/kg): 800 to 5000 ng/mL

Reference: patent publication EP4755881A1 (Wuhan Createrna Science and Technology Co., Ltd., priority 2023, dated 2025)
